ChEMBL document CHEMBL1133033, “Targeting the dimerization interface for irreversible inhibition of HIV-1 protease” (Bioorg Med Chem Lett, 2000)
Positions of bridges follow the written chain, without caps; N, C: chain ends. Non-standard residues stand in square brackets, D forms with d. Residues, ends and D or L forms follow the SMILES beside them. Chains are numbered I, II in the order given. ξ: configuration not given here. *: point of attachment. S(3-COOH-4-NO2-phenyl) = O=C(O)c1cc(S*)ccc1[N+](=O)[O-]; C16 diacid = O=C(O)CCCCCCCCCCCCCCC(=O)*; Thr(3ξ) = CC(O)[C@H](N)C(=O)O; ξP = O=C(O)C1CCCN1

Tests used:
[1] = target: Human immunodeficiency virus type 1 protease (Human immunodeficiency virus 1) (UniProt Q72874); experiment: Maximal inactivation rate of compound tested against HIV-1 protease
[2] = target: Human immunodeficiency virus type 1 protease (Human immunodeficiency virus 1) (UniProt Q72874); experiment: Inhibitory concentration of compound resulting in half-maximal inactivation of HIV-1 protease

## CC[C@H](C)[C@H](NC(=O)[C@H](CCC(N)=O)NC(=O)C1CCCN1C(=O)CCCCCCCCCCCCCCC(=O)N[C@@H](CO)C(=O)N[C@H](C(=O)N[C@@H](CC(C)C)C(=O)N[C@@H](CC(N)=O)C(=O)N[C@@H](CSSc1ccc([N+](=O)[O-])c(C(=O)O)c1)C(=O)O)[C@@H](C)O)C(=O)N[C@H](C(=O)N[C@@H](CC(C)C)C(=O)N[C@@H](Cc1c[nH]c2ccccc12)C(=O)O)C(C)O (some centres not stated) (I: [ξP]QI[Thr(3ξ)]LW-OH / II: STLNC(S(3-COOH-4-NO2-phenyl))-OH; linker I:N-II:N via C16 diacid)
[1]
  Vinact: 0.012 min⁻¹
[2]
  K inact: 3.7 µM
